Experimental data reported in patent US11400059B2, “Treatment of pain and/or pain related symptoms associated with dysmenorrhea” (ALYRA BIOTECH PTY LTD, priority 2017, dated 2022).

Assays:
[1] = system: HEK293/Null; assay: Antagonist screening on RIG-I−/MDA-5− control cell line stimulated with hIFNα; assay type: cell-based; conditions: stimulated with recombinant hIFNα at 100 IU/mL
Description: RIG-I and MDA-5 stimulation were tested by assessing IRF3 activation in HEK293 cells expressing human RIG-I or MDA-5 genes. The activity of the test articles was tested on human RIG-I and MDA-5 expressing cells as a potential agonist or antagonist. The test articles were evaluated at one concentration and compared to control ligands. This step was performed in triplicate. The results are provided as Relative Luminescence Units (RLUs).
RIG-I^−/MDA-5^− Cell Lines: HEK293/Null: Control for human RIG-I and MDA-5 Poly(I:C)HMW/LyoVec at 1 μg/mL. Antagonist: 500 ng/mL 5′ppp-dsRNA/LyoVec at 1 μg/mL. Antagonist: 500 ng/mL hIFNα at 1000 IU/mL. Antagonist: 100 IU/mL.
In a 96-well plate (200 μL total volume) containing the appropriate cells (25,000-50,000 cells/well), 20 μL of the test article or of the positive control ligand was added to the wells. For the antagonist assay, the test article was incubated with the cells, at 37° C. with 5% CO2, for 30 minutes prior to the addition of the positive control ligand to the wells. After 20 hour incubation, activation of the IRF pathway was monitored using a luciferase detection assay. Luciferase activity was assayed in triplicate from the supernatant of the induced cells, and the relative luminescence units (RLUs) are detected by a Promega GloMax Luminometer.

[2] = system: spinal microglia (Iba1) in the dorsal horn of the spinal cord; assay: Spinal microglial activation (Iba1 immunofluorescence) after intrauterine LPS; assay type: in vivo, mouse (Balb/C); conditions: intrauterine, mixed with LPS 100 μg/kg on first day of estrus and alone the subsequent day, 3 estrous cycles; amitriptyline 28 μg/kg, TAK-242 36 μg/kg; vs LPS
Description: Group 1 included twelve mice with 20 μl endotoxin-free saline introduced to the uterus on the first day of estrus and the subsequent day over 3 consecutive estrous cycles. Group 2 included twelve mice with LPS (100 μg/kg) instilled in the uterus on the first day of estrus and saline injected on the subsequent day over 3 consecutive estrous cycles. Group 3 included twelve mice with LPS (100 μg/kg) mixed with amitriptyline (20 μl of a 100 μM solution, equivalent to 28 μg/kg) instilled in the uterus on the first day of estrus, and amitriptyline alone instilled on the subsequent day over 3 consecutive estrous cycles. Group 4 included 14 mice with LPS (100 μg/kg) mixed with TAK-242 (20 μl of a 100 μM solution, equivalent to 36 μg/kg) instilled on the first day of estrus and TAK-242 alone instilled on the subsequent day over 3 consecutive estrous cycles.
The investigation involved the instillation of 20 ul of an endotoxin-free 0.9% saline solution into the uterus of all animals on the first day of estrus and the subsequent day during 3 consecutive estrous cycles. Additional agents added to the saline were included according to the groups outlined below. Where LPS is administered, this was done on only 1 day per estrous cycle.
Where amitriptyline or TAK-242 was administered, this is on both the first day of estrus and the subsequent day.
(§1) The spinal cord was assessed using immunohistochemistry techniques across levels T10, T11, T12, T13, L1, L2, L3, L4, L5, L6, S1 and S2 for Groups 1 and 2, where T represents the thoracic segment of the spinal cord, L represents the lumbar segment of the spinal cord and S represents the sacral segment of the spinal cord.
as §1, with “levels” for “levels T10, T11,”, “L6, S” for “L6, S1”, “Groups 3” for “Groups 1”, “and 4,” for “and 2,”, “cord. […]” for “cord.”

CN(C)CCC=C1c2ccccc2CCc2ccccc21 [Amitriptyline]
effect on RIG-I−/MDA-5− control cell line [1]: inhibitory effect
microglial reactivity (Iba1 staining), impact of intrauterine LPS at multiple levels of the spinal cord [2]: reduced microglial reactivity to basal levels
